Results reported in PubChem BioAssay (NCI).
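Abbreviation: GI50, concentration required for 50% inhibition of growth. Definition used: TGI = concentration required for complete inhibition of growth.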

Legend:
Experiment in all cases: DTP human tumour cell line panel, 384-well format; in the data active means GI50 below about 0.43 µM; inactive means the rest
NCI-H23 lung = test system: NCI-H23 lung
786-0 renal = test system: 786-0 renal
U251 glioblastoma = test system: U251 glioblastoma
KM12 colon = test system: KM12 colon
SN12C renal = test system: SN12C renal
NCI-H226 lung = test system: NCI-H226 lung
UACC-62 melanoma = test system: UACC-62 melanoma
A498 renal = test system: A498 renal
MDA-MB-231 breast = test system: MDA-MB-231 breast
NCI-H522 lung = test system: NCI-H522 lung
UACC-257 melanoma = test system: UACC-257 melanoma
ACHN renal = test system: ACHN renal
EKVX NSCLC = test system: EKVX NSCLC
HCT-116 colon = test system: HCT-116 colon
SR leukemia = test system: SR leukemia
OVCAR-5 ovarian = test system: OVCAR-5 ovarian
OVCAR-3 ovarian = test system: OVCAR-3 ovarian
NCI-H460 NSCLC = test system: NCI-H460 NSCLC
SW-620 colon = test system: SW-620 colon
HT29 colon = test system: HT29 colon
OVCAR-8 ovarian = test system: OVCAR-8 ovarian
K-562 leukemia = test system: K-562 leukemia
IGROV1 ovarian = test system: IGROV1 ovarian
UO-31 renal = test system: UO-31 renal
MDA-MB-468 breast = test system: MDA-MB-468 breast
T-47D breast = test system: T-47D breast
A549 NSCLC = test system: A549 NSCLC
M14 melanoma = test system: M14 melanoma
MALME-3M melanoma = test system: MALME-3M melanoma
HOP-62 NSCLC = test system: HOP-62 NSCLC
SF-295 CNS = test system: SF-295 CNS
TK-10 renal = test system: TK-10 renal
OVCAR-4 ovarian = test system: OVCAR-4 ovarian
HOP-92 NSCLC = test system: HOP-92 NSCLC
COLO 205 colon = test system: COLO 205 colon
MOLT-4 leukemia = test system: MOLT-4 leukemia
SF-268 CNS = test system: SF-268 CNS
RXF 393 renal = test system: RXF 393 renal
DU-145 prostate = test system: DU-145 prostate
SK-MEL-28 melanoma = test system: SK-MEL-28 melanoma
SK-MEL-5 melanoma = test system: SK-MEL-5 melanoma
SK-MEL-2 melanoma = test system: SK-MEL-2 melanoma
HS 578T breast = test system: HS 578T breast
SK-OV-3 ovarian = test system: SK-OV-3 ovarian
CAKI-1 renal = test system: CAKI-1 renal
HCT-15 colon = test system: HCT-15 colon
MCF7 breast = test system: MCF7 breast
SF-539 CNS = test system: SF-539 CNS
SNB-19 CNS = test system: SNB-19 CNS
NCI-H322M lung = test system: NCI-H322M lung
MDA-MB-435 melanoma = test system: MDA-MB-435 melanoma
HL-60(TB) leukemia = test system: HL-60(TB) leukemia
SNB-75 CNS = test system: SNB-75 CNS
PC-3 prostate = test system: PC-3 prostate

C[C@@H](COCCC(=O)N1CCN(c2ncc(C(F)(F)F)cn2)CC1)Nc1cn[nH]c(=O)c1C(F)(F)F
2.67 µM: TGI (SR leukemia)
79.8 µM: TGI (SK-OV-3 ovarian)
33.9 µM: TGI (SF-295 CNS)
> 100 µM: TGI (786-0 renal) | TGI (NCI-H226 lung) | TGI (UACC-62 melanoma) | TGI (A498 renal) | TGI (MDA-MB-231 breast) | TGI (NCI-H522 lung) | TGI (UACC-257 melanoma) | TGI (ACHN renal) | TGI (EKVX NSCLC) | TGI (HCT-116 colon) | TGI (OVCAR-5 ovarian) | TGI (OVCAR-3 ovarian) | TGI (NCI-H460 NSCLC) | TGI (SW-620 colon) | TGI (HT29 colon) | TGI (OVCAR-8 ovarian) | TGI (K-562 leukemia) | TGI (IGROV1 ovarian) | TGI (UO-31 renal) | TGI (T-47D breast) | TGI (A549 NSCLC) | TGI (M14 melanoma) | TGI (MALME-3M melanoma) | TGI (TK-10 renal) | TGI (OVCAR-4 ovarian) | TGI (HOP-92 NSCLC) | TGI (COLO 205 colon) | TGI (DU-145 prostate) | TGI (SK-MEL-28 melanoma) | TGI (SK-MEL-5 melanoma) | TGI (SK-MEL-2 melanoma) | TGI (HS 578T breast) | TGI (CAKI-1 renal) | TGI (HCT-15 colon) | TGI (MCF7 breast) | TGI (SNB-19 CNS) | TGI (NCI-H322M lung) | TGI (MDA-MB-435 melanoma) | TGI (SNB-75 CNS) | TGI (PC-3 prostate)
inactive: GI50 (NCI-H23 lung) 9.26 µM | GI50 ([…]-0 renal) 41.5 µM | GI50 (U251 glioblastoma) 11.6 µM | GI50 (KM12 colon) 3.66 µM | GI50 (SN12C renal) 5.17 µM | GI50 (NCI-H226 lung) 18.6 µM | GI50 (UACC-62 melanoma) 32.3 µM | GI50 (A498 renal) > 100 µM | GI50 (MDA-MB-231 breast) > 100 µM | GI50 (NCI-H522 lung) 31.8 µM | GI50 (UACC-257 melanoma) 60.4 µM | GI50 (ACHN renal) 24 µM | GI50 (EKVX NSCLC) 63.6 µM | GI50 (HCT-116 colon) 8.64 µM | GI50 (SR leukemia) 1.31 µM | GI50 (OVCAR-5 ovarian) > 100 µM | GI50 (OVCAR-3 ovarian) 35.5 µM | GI50 (NCI-H460 NSCLC) 16.1 µM | GI50 (HT29 colon) > 100 µM | GI50 (OVCAR-8 ovarian) 14.7 µM | GI50 (K-562 leukemia) 10 µM | GI50 (IGROV1 ovarian) 69.1 µM | GI50 (UO-31 renal) 22.4 µM | GI50 (MDA-MB-468 breast) 3.72 µM | GI50 (T-47D breast) 24.2 µM | GI50 (A549 NSCLC) 41 µM | GI50 (M14 melanoma) 46.8 µM | GI50 (MALME-3M melanoma) > 100 µM | GI50 (HOP-62 NSCLC) 4.01 µM | GI50 (SF-295 CNS) 6.19 µM | GI50 (TK-10 renal) > 100 µM | GI50 (OVCAR-4 ovarian) > 100 µM | GI50 (HOP-92 NSCLC) 41.2 µM | GI50 (COLO 205 colon) > 100 µM | GI50 (MOLT-4 leukemia) 1.53 µM | GI50 (SF-268 CNS) 10.1 µM | GI50 (DU-145 prostate) 12.7 µM | GI50 (SK-MEL-28 melanoma) > 100 µM | GI50 (SK-MEL-5 melanoma) 48.5 µM | GI50 (SK-MEL-2 melanoma) > 100 µM | GI50 (HS 578T breast) 1.09 µM | GI50 (SK-OV-3 ovarian) 13.9 µM | GI50 (CAKI-1 renal) 25.7 µM | GI50 (HCT-15 colon) 77.9 µM | GI50 (MCF7 breast) 14.5 µM | GI50 (SF-539 CNS) 3.28 µM | GI50 (SNB-19 CNS) 48 µM | GI50 (NCI-H322M lung) > 100 µM | GI50 (MDA-MB-435 melanoma) > 100 µM | GI50 (HL-60(TB) leukemia) 2.49 µM | GI50 (SNB-75 CNS) 12.4 µM | GI50 (PC-3 prostate) 62.5 µM
27.4 µM: TGI (SF-539 CNS)
16 µM: TGI (HL-60(TB) leukemia)
73.7 µM: TGI (U251 glioblastoma)
23.5 µM: TGI (MDA-MB-468 breast)
73.1 µM: TGI (SF-268 CNS)
2.97 µM: TGI (MOLT-4 leukemia)
22.5 µM: TGI (HOP-62 NSCLC)
52.1 µM: TGI (NCI-H23 lung)
82.7 µM: TGI (KM12 colon)
20.3 µM: TGI (RXF 393 renal)
active: GI50 (SW-620 colon) 0.187 µM
51.9 µM: TGI (SN12C renal)
